Laboratory results reported in PMC4398456, “Evidence for a Novel Mechanism of Antimicrobial Action of a Cyclic R-,W-Rich Hexapeptide” (PLoS ONE, 2015).
Residues, ends and D or L forms follow the SMILES beside them.

Columns and labels:
[1] = ITC binding to LUVs; conditions: 25°C; for K 0 (hydrophobic partition coefficient): phosphate buffer pH 7.4, surface partition model; for ΔG°: calculated as -RT ln(55.5 M × K 0); for -TΔS°: from Gibbs-Helmholtz equation
Text: Large unilamellar vesicles (LUVs) were used for isothermal titration calorimetry studies and prepared as described before. […] As CL potentially carries two negative charges it was applied at half POPG concentrations to give liposomes with identical surface charge. Subsequently, chloroform was evaporated under nitrogen stream and obtained lipid films were dried under high vacuum for several hours and rehydrated in phosphate buffer by thorough vortexing. The solution was heated 2–3 times in a water bath to 40°C to facilitate resuspension. POPE-LUVs were obtained after 35-fold extrusion through two stacked polycarbonate membranes (100 nm pore size) using a mini extruder (Avestin, Switzerland). The procedure gives vesicles with a diameter of 90–120 nm as determined with dynamic light scattering (DLS) performed on a Zetasizer Nano ZS ZEN 3600 (Malvern Instruments, UK). Large liposomes for dye release experiments were prepared with a solution of 80 mM calcein in 10 mM Tris buffer, 0.1 mM EDTA, pH 7.4 and treated to remove non-incorporated dye as described before.
High-sensitivity isothermal titration calorimetry (ITC) experiments to characterise peptide interaction with model membranes were performed at 25°C on a VP-ITC instrument (MicroCall, Malvern Instruments, UK). Binding data were generated as described before. Prior to use, solutions were gently degassed under vacuum. 10 μl aliquots of 5 to 10 mM lipid vesicles were titrated into a 40 μM peptide solution inside the calorimeter cell (1.4 ml) while the reaction mixture was continuously stirred at 307 rpm. Time intervals between injections were adjusted to 10 min which was sufficient for the heat signal to return to baseline level. Automated baseline adjustment and peak integration were accomplished with the public-domain software NITPIC [32].
Binding parameters, such as hydrophobic partition coefficient (K 0) and enthalpy of binding (ΔH°), were derived by applying a surface partition equilibrium under the specific condition that peptide adsorption is linearly related to the peptide concentration immediately above the membrane surface. This concentration in close proximity to the membrane is determined by electrostatic interactions and depends on the bulk concentration of peptide, peptide charge and membrane surface potential. Negatively charged lipid layers attract cationic peptides. Consequently, the membrane surface concentration is enhanced compared to that in the bulk solution. After binding of cationic peptides to an electrically neutral membrane it becomes positively charged which results in a repulsion of further peptides from the membrane surface. Using the Gouy—Chapman theory which accounts for electrostatic effects, it is possible to calculate the peptide surface concentration and to determine the partition coefficient K 0 [33]. Nonlinear least-squares data fitting was performed with Excel 2010 (Microsoft) using the Solver add-in (Frontline Systems). The Gibbs free energy was calculated according to ΔG° = -RT ln(55.5 M × K 0), where 55.5 M is the molar concentration of water in the aqueous phase. Finally, the entropic contribution to membrane partitioning,-TΔS°, was derived from the Gibbs-Helmholtz equation, ΔG° = ΔH°-TΔS°.

[2] = test system: mammalian cells; conditions: cited from earlier work
Text: The structure-activity-relationship of small cyclic R-,W-rich peptides is well characterised. […] With cationic charge and high amphipathicity the cyclic peptide features the structural determinants for membrane activity.

[3] = LUVs of POPC/CL (87.5/12.5 mol%)
[4] = LUVs of POPE/CL (87.5/12.5 mol%)

N=C(N)NCCC[C@@H]1NC(=O)[C@H](CCCNC(=N)N)NC(=O)[C@H](Cc2c[nH]c3ccccc23)NC(=O)[C@H](Cc2ccccc2)NC(=O)[C@H](Cc2c[nH]c3ccccc23)NC(=O)[C@H](CCCNC(=N)N)NC1=O [cWFW] (cyclo(FWRRRW))
ΔH° ([1]; 5 mM LUVs into 40 μM peptide, γ = 1): -2.87 kcal/mol | K 0 (hydrophobic partition coefficient) ([1]; 5 mM LUVs titrated into 40 μM peptide, γ = 1): 5.5e+07 M⁻¹ | ΔH° ([1]; 10 mM LUVs into 40 μM peptide, γ = 0.5): -1.22 kcal/mol | K 0 (hydrophobic partition coefficient) ([1]; 10 mM LUVs titrated into 40 μM peptide, γ = 0.5): 3.7e+06 M⁻¹ | K 0 (hydrophobic partition coefficient) ([1]; 5 to 10 mM LUVs titrated into 40 μM peptide, γ = 0.5): 1.4e+06 M⁻¹ | ΔH° ([1]; LUVs into 40 μM peptide, γ = 0.5): -5.81 kcal/mol | ΔG° [1, 3]: -10.8 kcal/mol | ΔG° [1, 4]: -12.9 kcal/mol | ΔG° ([1]; LUVs of POPE/POPG (75/25 mol%)): -11.3 kcal/mol | -TΔS° [1, 3]: -4.95 kcal/mol | -TΔS° [1, 4]: -10.1 kcal/mol | -TΔS° ([1]; LUVs of POPE/POPG (75/25 mol%)): -10.1 kcal/mol | toxicity towards mammalian cells [2]: no toxicity
